Some test systems named below: SF-268 CNS; PC-3 prostate; HCT-116 colon; OVCAR-3 ovarian; SF-295 CNS; HOP-92 NSCLC; HOP-62 NSCLC; IGROV1 ovarian; TK-10 renal; MDA-MB-231 breast.
Assay in all cases: NCI-60 cell line screen, 48 h

SMILES strings stand for the structures. Values joined by “and” are separate entries in the source; they are usually repeats but may differ in a detail not shown here. Identical values can stand only once.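 A five-concentration, 48-hour dose response in 96-well plates underlies each endpoint, interpolated linearly between surrounding concentrations. At the GI50, growth is halved. Definition used: TGI = concentration required for complete inhibition of growth.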

As to `CN[C@@H](C)C(=O)N[C@H](C(=O)N1CCC[C@H]1C(=O)Nc1snnc1-c1ccccc1)C1CCCCC1`, the GI50 is over 86.1 µM in the experiment with SF-268 CNS; 48.6 µM with PC-3 prostate; 41.6 µM with HCT-116 colon; 58.5 µM with OVCAR-3 ovarian; 34.4 µM in the experiment with SF-295 CNS; 3.06 µM in the experiment on HOP-92 NSCLC. The GI50 was 26.5 µM in the experiment on HOP-62 NSCLC, 76.9 µM in the experiment with IGROV1 ovarian, over 59.9 µM in the experiment with TK-10 renal and 778 nM in the experiment with MDA-MB-231 breast. Besides, the TGI is over 100 µM with SF-268 CNS; over 100 µM with PC-3 prostate; over 100 µM with HCT-116 colon; over 100 µM in the experiment on OVCAR-3 ovarian; over 100 µM in the experiment on SF-295 CNS; 27.7 µM in the experiment with HOP-92 NSCLC. In addition, the TGI in the experiment on HOP-62 NSCLC is over 100 µM; with IGROV1 ovarian, over 100 µM; with TK-10 renal, over 94.9 µM; in the experiment on MDA-MB-231 breast, 21.4 µM.

As for `COc1cc(C[C@H]2c3cc(OC)c(OC)cc3CCN2C)c(Oc2cc3c(cc2OC)-c2c(OC)c(OC)cc4c2[C@H](C3)N(C)CC4)cc1OC`, the GI50 in the experiment with SF-268 CNS is 14.3 µM; with HCT-116 colon, 10.4 µM; in the experiment with OVCAR-3 ovarian, 11.8 µM; in the experiment with SF-295 CNS, 16.5 µM; in the experiment on HOP-92 NSCLC, 13.3 µM; with HOP-62 NSCLC, 19.9 µM. For the same molecule, the results for the GI50 in the experiment on IGROV1 ovarian and in the experiment with TK-10 renal were 14.2 µM and 15.7 µM, respectively. Further, the TGI with SF-268 CNS was 31 µM and 28.4 µM; in the experiment on PC-3 prostate it was 33.7 µM; with HCT-116 colon, 14 µM and 22.4 µM; in the experiment on OVCAR-3 ovarian it was 23.6 µM and 24.8 µM; in the experiment on SF-295 CNS, 21 µM and 30.7 µM; in the experiment with HOP-92 NSCLC it was 8.94 µM and 28.8 µM. The TGI is 24 µM and 35.6 µM with HOP-62 NSCLC; 32.6 µM and 28.3 µM in the experiment with IGROV1 ovarian; 12.9 µM and 29.2 µM with TK-10 renal; 14.9 µM in the experiment on MDA-MB-231 breast.

Regarding `N#CC(NC12CC3CC(CC(C3)C1)C2)c1ccc2c(c1)OCO2` (stereo not given), the TGI with SF-268 CNS, with PC-3 prostate, in the experiment on HCT-116 colon, in the experiment on OVCAR-3 ovarian, in the experiment on SF-295 CNS and in the experiment on HOP-92 NSCLC was over 100 µM each time. Further, the TGI with HOP-62 NSCLC, in the experiment on IGROV1 ovarian, in the experiment on TK-10 renal and in the experiment on MDA-MB-231 breast was over 100 µM in each case.

As for `COc1ccc(-c2cn(-c3cc(OC)c(OC)c(OC)c3)c(SCc3ccccc3)n2)cc1OC`, the GI50 in the experiment on SF-268 CNS, with PC-3 prostate, in the experiment with HCT-116 colon, in the experiment on OVCAR-3 ovarian, with SF-295 CNS and with HOP-92 NSCLC was over 100 µM each time. For the same molecule, the GI50 was over 100 µM in the experiment with HOP-62 NSCLC, over 100 µM in the experiment with IGROV1 ovarian, over 100 µM in the experiment on TK-10 renal and over 100000 nM in the experiment with MDA-MB-231 breast. Further, the TGI in the experiment with SF-268 CNS, in the experiment on PC-3 prostate, in the experiment on HCT-116 colon, with OVCAR-3 ovarian, in the experiment with SF-295 CNS and with HOP-92 NSCLC was over 100 µM throughout. Moreover, the TGI with HOP-62 NSCLC, in the experiment with IGROV1 ovarian, with TK-10 renal and with MDA-MB-231 breast was over 100 µM throughout.

On to `COc1ccc(-c2c[nH]c(C(=O)O)c2-c2cc(OC)c(OC)c(OC)c2)cc1`, for which the GI50 is over 100 µM in the experiment on SF-268 CNS; 4.46 µM in the experiment on PC-3 prostate; 5.02 µM with HCT-116 colon; 2.74 µM in the experiment with OVCAR-3 ovarian; 4.19 µM in the experiment with SF-295 CNS; 5.68 µM in the experiment on HOP-92 NSCLC. Besides, the GI50 in the experiment on HOP-62 NSCLC was 5.87 µM; in the experiment on IGROV1 ovarian it was 5.5 µM; in the experiment on TK-10 renal it was over 100 µM; in the experiment on MDA-MB-231 breast it was 12400 nM. Further, the TGI is over 100 µM with SF-268 CNS; over 100 µM with PC-3 prostate; over 100 µM with HCT-116 colon; 8.05 µM in the experiment on OVCAR-3 ovarian; over 100 µM in the experiment with SF-295 CNS; over 100 µM in the experiment on HOP-92 NSCLC. Moreover, the TGI in the experiment with HOP-62 NSCLC, in the experiment with IGROV1 ovarian, in the experiment on TK-10 renal and with MDA-MB-231 breast was over 100 µM in each case.

Regarding `COc1cc2ccc(/C=C\[N+](=O)[O-])cc2cc1OC`, the TGI was 11 µM with SF-268 CNS; 7.28 µM in the experiment with PC-3 prostate; 5.16 µM with HCT-116 colon; 18.1 µM in the experiment with OVCAR-3 ovarian; 33.8 µM in the experiment with SF-295 CNS; 10.1 µM in the experiment with HOP-92 NSCLC. Besides, the TGI in the experiment with HOP-62 NSCLC was found to be 16.1 µM; in the experiment with IGROV1 ovarian it was 3.92 µM; in the experiment on TK-10 renal, 9.01 µM; with MDA-MB-231 breast it was 9.02 µM.

As for `CN(C)CCN1C(=O)c2ccccc2N(C)c2ccccc21`, the GI50 in the experiment on SF-268 CNS, with PC-3 prostate, in the experiment on HCT-116 colon, in the experiment on OVCAR-3 ovarian, in the experiment with SF-295 CNS and in the experiment on HOP-92 NSCLC was over 100 µM throughout. The GI50 was over 100 µM with HOP-62 NSCLC, over 100 µM in the experiment with IGROV1 ovarian, over 100 µM in the experiment with TK-10 renal and over 100000 nM in the experiment on MDA-MB-231 breast. Also, the TGI with SF-268 CNS, in the experiment with PC-3 prostate, in the experiment with HCT-116 colon, in the experiment with OVCAR-3 ovarian, in the experiment with SF-295 CNS and in the experiment with HOP-92 NSCLC was over 100 µM each time. The TGI in the experiment with HOP-62 NSCLC, in the experiment with IGROV1 ovarian, in the experiment on TK-10 renal and in the experiment on MDA-MB-231 breast was over 100 µM throughout.

For the molecule `CC(=O)OCC1OC(n2cnc(C(N)=S)c2N)C(OC(C)=O)C1OC(C)=O` (stereo not given), the TGI in the experiment on SF-268 CNS, in the experiment with PC-3 prostate, with HCT-116 colon, in the experiment with OVCAR-3 ovarian, in the experiment with SF-295 CNS and in the experiment with HOP-92 NSCLC was over 100 µM each time. The TGI in the experiment on HOP-62 NSCLC, in the experiment on IGROV1 ovarian, in the experiment on TK-10 renal and with MDA-MB-231 breast was over 100 µM throughout.

On to `COc1cc(C(=O)O[C@H](C(=O)NCCCCCNC(=O)[C@@H](OC(=O)c2cc(OC)cc3c(C)cccc23)[C@]2(C)CO2)[C@]2(C)CO2)c2cccc(C)c2c1`, for which the GI50 in the experiment with SF-268 CNS is under 0.0304 µM; with PC-3 prostate, 0.997 µM; in the experiment with HCT-116 colon it was 0.884 µM; in the experiment on OVCAR-3 ovarian, 1.61 µM; in the experiment on SF-295 CNS, 2.5 µM; with HOP-92 NSCLC, 0.292 µM. For the same molecule, the GI50 in the experiment with HOP-62 NSCLC is under 0.01 µM; in the experiment on IGROV1 ovarian, 1.43 µM; in the experiment on TK-10 renal, 0.661 µM; in the experiment with MDA-MB-231 breast, 893 nM. For the same molecule, the TGI in the experiment on SF-268 CNS was 0.92 µM; in the experiment on PC-3 prostate, over 41.1 µM; with HCT-116 colon, 3.68 µM; in the experiment on OVCAR-3 ovarian, 10.6 µM; in the experiment on SF-295 CNS, 6.75 µM; in the experiment on HOP-92 NSCLC, 0.867 µM. The TGI in the experiment with HOP-62 NSCLC is 0.157 µM; with IGROV1 ovarian, over 100 µM; in the experiment with TK-10 renal, 2.37 µM; in the experiment with MDA-MB-231 breast it was 4.03 µM.

Regarding `COc1cc(OC(=O)c2ccccc2)cc2c1C(=O)C=CC2=O`, the TGI was 36.3 µM with SF-268 CNS; 28.5 µM in the experiment with PC-3 prostate; 13.5 µM in the experiment on HCT-116 colon; 14.2 µM in the experiment with OVCAR-3 ovarian; 32.1 µM with SF-295 CNS; 5.05 µM in the experiment with HOP-92 NSCLC. Also, the TGI amounted to 58.6 µM in the experiment with HOP-62 NSCLC, 29 µM in the experiment on IGROV1 ovarian, 32.5 µM in the experiment on TK-10 renal and 5.48 µM in the experiment on MDA-MB-231 breast.

For the molecule `COc1ccc(C(=O)c2cc(OC)c(OC)c(OC)c2)cc1OC(=O)CCl`, the GI50 with SF-268 CNS was 0.106 µM; in the experiment with PC-3 prostate, under 0.0192 µM; in the experiment on HCT-116 colon, 0.0205 µM; in the experiment with OVCAR-3 ovarian, 0.0287 µM; in the experiment with SF-295 CNS it was 0.0456 µM; in the experiment on HOP-62 NSCLC, 0.224 µM. Moreover, the GI50 with IGROV1 ovarian is 0.359 µM; in the experiment with TK-10 renal, 19.4 µM; in the experiment on MDA-MB-231 breast, 36.2 nM. The TGI with SF-268 CNS, in the experiment on PC-3 prostate, in the experiment with HCT-116 colon, in the experiment on SF-295 CNS, with HOP-92 NSCLC and in the experiment on HOP-62 NSCLC was over 100 µM each time. The TGI in the experiment with IGROV1 ovarian and in the experiment on TK-10 renal was over 100 µM in each case.

The values are drawn from PubChem BioAssay (NCI).
